Literature values in patent US9961900B2, “Herbicide formulations” (priority 2012, dated 2018).
Like-named read-outs stand apart in the source and are kept apart here.

Tests used:
[1] = not given; remark: listed apart in the source
[2] = for Aqueous hydrolysis: at pH 7 and 20° C.
[3] = not given; remark: listed apart in the source

SMILES: C[C@@H](Oc1ccc(Oc2ncc(C(F)(F)F)cc2Cl)cc1)C(=O)O [haloxyfop-P, (R)-2-{4-[3-chloro-5-(trifluoromethyl)-2-pyridyloxy]phenoxy}propionic acid]
- Aqueous photolysis DT50 (pH 7): Aqueous photolysis DT50 at pH 7: 12 days

SMILES: CCOC(=O)C(C)Oc1ccc(Oc2nc3ccc(Cl)cc3s2)cc1 (racemic) [fenthiaprop-ethyl, ethyl (RS)-2-[4-(6-chloro-1,3-benzothiazol-2-yloxy)phenoxy]propionate]
- Solubility in acetone [1]: In acetone, ethyl acetate, toluene, >500 g/kg;
- Solubility in cyclohexane [1]: > 40 g/kg
- Solubility in ethanol [1]: > 50 mg/mL
- Solubility in ethyl acetate [1]: In acetone, ethyl acetate, toluene, >500 g/kg;
- Solubility in n-octanol [1]: > 50 mg/mL
- Solubility in toluene [1]: In acetone, ethyl acetate, toluene, >500 g/kg;
- Solubility in water [1]: Water: 0.8 mg/L

SMILES: C=CCO/N=C(\CCC)C1=C(O)CC(C)(C)C(C(=O)OC)C1=O (racemic) [aloxydim, methyl (1RS)-3-[(E)-1-(allyloxyimino)butyl]-4-hydroxy-6,6-dimethyl-2-oxocyclohex-3-enecarboxylate]
- Aqueous photolysis DT50 (pH 7): Aqueous photolysis DT50 at pH 7: 0.22 days ^+

SMILES: CCCC(=NOCC)C1=C(O)C[C@@H](C[C@@H](C)SCC)CC1=O (racemic) [sethoxydim, (5RS)-2-[(EZ)-1-(ethoxyimino)butyl]-5-[(2RS)-2-(ethylthio)propyl]-3-hydroxycyclohex-2-en-1-one]
- Aqueous photolysis DT50 (pH 7): Aqueous photolysis DT50 at pH 7: 0.02 days ^+

SMILES: CCCC(=NOCC)C1=C(O)C[C@@H]([C@H]2CCCSC2)CC1=O (racemic) [cycloxydim, (5RS)-2-[(EZ)-1-(ethoxyimino)butyl]-3-hydroxy-5-[(3RS)-thian-3-yl]cyclohex-2-en-1-one]
- Aqueous photolysis DT50 (pH 7): Aqueous photolysis DT50 at pH 7: 0.05 days ^+

SMILES: COc1cc(OC)n2nc(NS(=O)(=O)c3c(C(F)(F)F)ccnc3OC)nc2n1 [pyroxsulam]
- Photolytic stability DT50 (pH 7): DT50: 3.2 d (“”)
- Aqueous hydrolysis [2]: Stable (“”)

SMILES: CCON=C(CC)C1=C(O)CC(c2c(C)cc(C)cc2C)CC1=O (racemic) [tralkoxydim, (RS)-2-[(EZ)-1-(ethoxyimino)propyl]-3-hydroxy-5-mesitylcyclohex-2-en-1-one]
- Solubility in water ([1]; pH 5.2): 6.7 mg/L at 22 °C (pH 5.2)
- Solubility in water ([1]; pH 6.5): 6.1 mg/L at 22 °C (pH 6.5)
- Solubility in water ([1]; pH 9): 9820 mg/L at 22 °C (pH 9.0)
- Aqueous photolysis DT50 (pH 7): Aqueous photolysis DT50 at pH 7: 5.8 days 5.8 ^+
- Aqueous hydrolysis (DT50) ([2]; 20° C. and pH 7): at 20 °C and pH 7: 140 days
- Hydrolysis DT50 ([2]; pH 5, 25° C.): pH sensitive: DT50 9 days at pH 5,
- Aqueous hydrolysis stability ([2]; pH 9): stable at pH 9, all at 25° C.^+

SMILES: CCCCOC(=O)[C@@H](C)Oc1ccc(Oc2ccc(C#N)cc2F)cc1 [cyhalofop-butyl, butyl (R)-2-[4-(4-cyano-2-fluorophenoxy)phenoxy]propionate]
- Aqueous hydrolysis (DT50) ([2]; 20° C. and pH 7): Aqueous hydrolysis DT50 at 20 °C and pH 7: 97 days
- Aqueous hydrolysis stability ([2]; pH 4, 25° C.): Stable
- Hydrolysis DT50 ([2]; pH 9, 25° C.): 2 days
- log P (octanol-water) ([3]; pH 7, 20° C.): log P = 4.8

SMILES: CC(Oc1ccc(Oc2ccc(Cl)cc2Cl)cc1)C(=O)O (racemic) [diclofop, (RS)-2-[4-(2,4-dichlorophenoxy)phenoxy]propionic acid]
- log P (octanol-water) ([3]; pH 5): log P = 2.81
- log P (octanol-water) ([3]; pH 7): log P = 1.61

SMILES: COC(=O)c1ccccc1S(=O)(=O)NC(=O)N(C)c1nc(C)nc(OC)n1 [tribenuron-methyl]
- Photolytic stability DT50 (pH 7): Stable
- Aqueous hydrolysis (DT50) ([2]; at pH 5): 2.2 days
- Aqueous hydrolysis (DT50) ([2]; at pH 7): 16

SMILES: COC(=O)c1ccccc1S(=O)(=O)NC(=O)Nc1nc(C)nc(OC)n1 [metsulfuron-methyl]
- Photolytic stability DT50 (pH 7): Stable
- Aqueous hydrolysis (DT50) ([2]; at pH 5): 2 days
- Aqueous hydrolysis (DT50) ([2]; at pH 7): Stable

SMILES: CCCCOC(=O)[C@@H](C)Oc1ccc(Oc2ccc(C(F)(F)F)cn2)cc1 [fluazifop-P-butyl, butyl (R)-2-{4-[5-(trifluoromethyl)-2-pyridyloxy]phenoxy}propionate]
- Aqueous photolysis DT50 (pH 7): Aqueous photolysis DT50 at pH 7: 6 days
- Aqueous hydrolysis (DT50) ([2]; 20° C. and pH 7): Aqueous hydrolysis DT50 (days) at 20 °C and pH 7: 78
- Hydrolysis DT50 ([2]; pH 5, 25° C., darkness): Stable
- Hydrolysis DT50 ([2]; pH 9, 25° C., darkness): 1.21 days

SMILES: C[C@@H](Oc1ccc(Oc2cnc3cc(Cl)ccc3n2)cc1)C(=O)OCC1CCCO1 (stereo partly shown) [quizalofop-P-tefuryl]
- Aqueous photolysis DT50 (pH 7): Aqueous photolysis DT50 at pH 7: 1.0 days
- Aqueous hydrolysis (DT50) ([2]; 20° C. and pH 7): Aqueous hydrolysis DT50 at 20 °C and pH 7: 18.2 days
- Hydrolysis DT50 ([2]; pH 5.1, 22° C.): 8.2 days
- Hydrolysis DT50 ([2]; pH 9.2, 22° C.): 0.3 days

SMILES: C#CCOC(=O)[C@@H](C)Oc1ccc(Oc2ncc(Cl)cc2F)cc1 [clodinafop-propargyl, prop-2-ynyl (R)-2-[4-(5-chloro-3-fluoro-2-pyridyloxy)phenoxy]propionate]
- Aqueous photolysis DT50 (pH 7): Aqueous photolysis DT50 at pH 7: 24 days
- Behaviour in alkaline media ([2]; alkaline media): hydrolyzes
- Hydrolytic DT50 ([2]; pH 7, 25° C.): 4.8 days
- Hydrolytic DT50 ([2]; pH 9, 25° C.): 0.07 days

SMILES: CC(C)=NOCCOC(=O)[C@@H](C)Oc1ccc(Oc2cnc3cc(Cl)ccc3n2)cc1 [propaquizafop, 2-isopropylideneaminooxyethyl (R)-2-[4-(6-chloroquinoxalin-2-yloxy)phenoxy]propionate]
- Hydrolytic DT50 ([2]; pH 5, 25° C.): 10.5 days
- Hydrolytic DT50 ([2]; pH 7, 25° C.): 32.0 days
- Hydrolytic DT50 ([2]; pH 9, 25° C.): 0.538 days

SMILES: CCS[C@H](C)C[C@H]1CC(=O)C(C(CC)=NOC/C=C/Cl)=C(O)C1 (racemic) [clethodim, (5RS)-2-{(1EZ)-1-[(2E)-3-chloroallyloxyimino]propyl}-5-[(2RS)-2-(ethylthio)propyl]-3-hydroxycyclohex-2-en-1-one]
- Aqueous photolysis DT50 (pH 5, 25° C.): 1.6 days
- Aqueous photolysis DT50 (pH 7, 25° C.): Aqueous photolysis DT50 at pH 7: 5.45 days (25° C.)
- Aqueous photolysis DT50 (pH 9, 25° C.): 7.79 days

SMILES: CC(Oc1ccc(Oc2ncc(C(F)(F)F)cc2Cl)cc1)C(=O)O (racemic) [haloxyfop, (RS)-2-{4-[3-chloro-5-(trifluoromethyl)-2-pyridyloxy]phenoxy}propionic acid]
- Aqueous photolysis DT50 (pH 7): Aqueous photolysis DT50 at pH 7: 12 days
- Aqueous hydrolysis (DT50) ([2]; 20° C. and pH 7): Stable

SMILES: Cc1ccn2nc(S(=O)(=O)Nc3c(F)cccc3F)nc2n1 [flumetsulam]
- Photolytic stability DT50 (pH 7): DT50: 270 d

SMILES: COc1cc(OC)nc(NC(=O)NS(=O)(=O)c2ncccc2C(=O)N(C)C)n1 [nicosulfuron]
- Photolytic stability DT50 (at pH 7): DT50: 202 d
- Aqueous hydrolysis (DT50) ([2]; at pH 5): 15 days
- Aqueous hydrolysis (DT50) ([2]; at pH 7): Stable

SMILES: COc1cnc(OC)n2nc(NS(=O)(=O)c3c(OCC(F)F)cccc3C(F)(F)F)nc12 [penoxsulam]
- Photolytic stability DT50 (pH 7): DT50: 2 d (at pH 7)
- Aqueous hydrolysis [2]: Stable (at pH 7 and 20° C.)

SMILES: COc1nc(C)nc(NC(=O)NS(=O)(=O)c2ccccc2Cl)n1 [chlorsulfuron]
- Photolytic stability DT50 (pH 7): DT50: 18.8 d
- Aqueous hydrolysis (DT50) ([2]; at pH 5): 1 days
- Aqueous hydrolysis (DT50) ([2]; at pH 7): Stable

SMILES: CCOC(=O)C(C)Oc1ccc(Oc2cnc3cc(Cl)ccc3n2)cc1 (racemic) [quizalofop-ethyl, ethyl (2RS)-2-[4-(6-chloroquinoxalin-2-yloxy)phenoxy]propionate]
- Stability in aqueous media ([2]; pH 3): Stable at pH 3-7 ^+

SMILES: COc1cc(OC)n2nc(S(=O)(=O)Nc3c(Cl)ccc(C)c3Cl)nc2n1 [metosulam]
- Photolytic stability DT50 (pH 7): DT50: 31.1 d
- Aqueous hydrolysis [2]: Stable

SMILES: CCCCOC(=O)C(C)Oc1ccc(Oc2ccc(C(F)(F)F)cn2)cc1 (racemic) [fluazifop-butyl, butyl (RS)-2-{4-[5-(trifluoromethyl)-2-pyridyloxy]phenoxy}propionate]
- Solubility in propylene glycol ([1]; 20° C.): dichloromethane, and xylene. Propylene glycol, 24 g/L
- Solubility in water ([1]; pH 6.5): Water: 1 mg/L at pH 6.5
- log P (octanol-water) ([3]; 20° C.): log P = 4.5
